Key:
MRL/lpr mice [1] = assay: Anti-dsDNA antibody titer in blood of MRL/lpr mice (Example 6); type: in vivo
Source text: MRL/lpr mice (purchased from Charles River Laboratories Japan, Inc.) were used as disease model (may also be referred to as collagen disease model or systemic lupus erythematosus (SLE) model) mice developing inflammatory diseases at a high rate and developing multiple autoimmune phenomena. Approximately 80% or more of the MRL/lpr mice develop systemic vasculitis around four to five months old. In addition, it is also known that the same individual spontaneously develops, not only vasculitis, but also glomerulonephritis, arthritis, sialadenitis, and the like (J. Jpn. Coll. Angiol., 2009, 49 11-16.).
Experiments were performed as follows: • Group 1: administered a physiological saline solution only (saline); • Group 2: administered 0.04 mg/kg of Compound A; • Group 3: administered 0.2 mg/kg of Compound A; • Group 4: administered 1 mg/kg of Compound A. […]
The blood was collected over time (0 w, 4 w, 8 w, 12 w, and 16 w) measure the anti-dsDNA antibody titers in the blood. The anti-dsDNA antibody is a kind of antinuclear antibody and is known to be frequently and specifically detected in the serum of SLE patients.
The anti-dsDNA antibody titers in the blood were measured with “LBIS™ anti-dsDNA mice ELISA KIT” (AKRDO-061, produced by Fujifilm Corp.). […]

MRL/lpr mice [2] = assay: Tissue lesion (lymphocytic infiltration, HE staining) in MRL/lpr mice (Example 9); type: in vivo; settings: 0.04, 0.2, 1 mg/kg for 16 weeks
Experimental: Present Example was performed simultaneously with Example 6 using MRL/lpr mice. Except for the following exceptions, present Example was performed by the same materials and method as Example 6 above.
After administration in the 16th week, 25-week-old mice were dissected and tissues (lacrimal glands, submandibular glands, and kidneys) were removed. After the removed tissues were rapidly frozen and embedded using O.C.T. compound (Sakura Finetek Japan Co., Ltd.), the frozen tissues were thin sectioned with a cryostat (LEICA CM 1920) and applied on glass slides. After the sections on the glass slides were dried, the tissues were stained by hematoxylin-eosin staining to be observed with a microscope. The hematoxylin-eosin staining was performed in the following procedure: • 1) fixation and washing with an ethanol-formalin-acetic acid fixative; • 2) adding New Hematoxylin solution Type G (Muto Pure Chemicals Co., Ltd.), followed by washing; • 3) adding New Eosin solution Type A (Muto Pure Chemicals Co., Ltd.); • 4) adding 80% ethanol; • 5) adding xylene; and • 6) mounted with Marinol (Muto Pure Chemicals Co., Ltd.) for observation.

NZB/WF1 mice = assay: Urine protein in NZB/WF1 mice (Example 8); type: in vivo
Experimental: Present Example was performed simultaneously with Example 7 using NZB/WF1 mice. Except for the following exceptions, present Example was performed by the same materials and method as Example 7 above.
The urine was collected over time (0 w, 4 w, 7 w, 12 w, 16 w, and 18 w) to evaluate the protein content […] in the urine using urine protein test strips. It is known that SLE patients are prone to develop lupus nephritis and a higher concentration of protein is contained in the urine of incident patients than the urine of normal healthy individuals.
The level of the protein content in the mouse urine was numerically expressed using Albustix (Ames urine protein test strips, produced by Siemens Healthcare K.K.) as urine protein test strips based on the following criteria. • negative: 0 • ±: 0.5 • +: 1 • 2+: 2 • 3+: 3

[3] = tested on: human peripheral blood monocytes; assay: IL-6 production inhibitory effect of BAFF from human peripheral blood monocytes (Example 3); type: cell-based
Experimental: Monocytes were isolated from normal healthy human peripheral blood using CD14-microbeads. In the presence of 2 μg/mL recombinant human BAFF (same as Example 2) and Compound A (2 μM and 10 μM) (entire culture scale of 24-well culture plates at 2 mL/well), 5×10^5 of the isolated monocytes were cultured using a 10% FBS/RPMI 1640 culture medium in a 5% CO2 environment at 37° C. for four days. Four days later, the supernatant was removed to determine the IL-6 content in the culture supernatant by IL-6 specific ELISA. For comparison, experiments using BIK-13 instead of Compound A were also performed.

[4] = tested on: peripheral blood mononuclear cells (PBMC); assay: IgG production by B cell-stimulation culture using peripheral blood mononuclear cells (Example 5); type: cell-based, human
Experimental: Peripheral blood mononuclear cells were isolated from normal healthy human peripheral blood by density gradient centrifugation using Ficoll. In the presence of 5 μg/mL anti-human IgM antibody, 1 μg/mL anti-human CD40 antibody, 30 ng/mL recombinant human IL-21, 30 ng/mL recombinant human BAFF, and Compound A (0.4 μM, 2 μM, and 10 μM), 2×10^5 peripheral blood mononuclear cells were cultured using a 10% FBS/RPMI 1640 culture medium in a 5% CO2 environment at 37° C. for seven days. The cells were cultured in 96-well round-bottom culture plates in a scale of 200 μL per well. Seven days later, the supernatant was removed and the culture supernatant was collected to determine the IgG content in the culture supernatant by ELISA. As controls, experiments in the case of not adding Compound A and the case of adding neither Compound A nor BAFF were also performed. Moreover, for comparison with the effects of Compound A, experiments using BIK-13 instead of Compound A were also performed.

Cc1c(C)n(Cc2ccccc2)c2ncnc(OC3CCN(CC(=O)NCC4CC4)CC3)c12 [Compound A, 2-[4-{(7-benzyl-5,6-dimethyl-7H-pyrrolo[2,3-d]pyrimidin-4-yl)oxy}piperidin-1-yl]-N(cyclopropylmethyl)acetamide]
anti-dsDNA antibody titer inhibitory effect compared with saline (MRL/lpr mice [1]; 0.2 mg/kg and 1 mg/kg, 16th week): significant (respectively, p<0.05) anti-dsDNA antibody titer inhibitory effects | anti-dsDNA antibody titers in the blood compared with saline (MRL/lpr mice [1]; 0.04, 0.2 and 1 mg/kg, intravenous injection five times a week, 8 w or later): tendency of decrease | lymphocytic infiltration areas in kidney tissues compared with saline (MRL/lpr mice [2]): reduced | lymphocytic infiltration areas in lacrimal gland tissues compared with saline (MRL/lpr mice [2]): clearly reduced | lymphocytic infiltration areas in submandibular gland tissues compared with saline (MRL/lpr mice [2]): reduced | protein content in the urine compared with saline (NZB/WF1 mice; 0.2 and 1 mg/kg, 12 w or later, urine protein test strips): tendency of decrease | inhibitory effect on the protein content in the urine compared with saline (NZB/WF1 mice; 12th week (1 mg/kg) and 18th week (0.2 mg/kg and 1 mg/kg)): significant (respectively, p<0.05) inhibitory effects | IL-6 production inhibitory effect compared with the control ([3]; 2 μM and 10 μM with 2 μg/mL human BAFF, 4 days): significant (p<0.001) IL-6 production inhibitory effects | relative amount of IL-6 production ([3]; 2 μM, control = 100%): 66.4±0.283% | IL-6 production inhibitory effect, times stronger than BIK-13 ([3]; monocytes of normal healthy individuals): at least 5 times | IgG antibody production inhibitory effect compared with the control ([4]; 0.4 μM, 2 μM and 10 μM, anti-IgM, anti-CD40, IL-21 and BAFF stimuli, 7 days): significant (respectively, p<0.05, p<0.01, and p<0.001) IgG antibody production inhibitory effects | cancellation of the IgG antibody production enhancement by BAFF ([4]; 10 μM, compared with adding none): almost completely cancelled | inhibitory effect on IgG antibody production, times stronger than BIK-13 ([4]; PBMC system of Example 5): approximately 25 times

From patent US12115161B2, “Prophylactic and/or therapeutic agent for inflammatory diseases which contains pyrrolopyrimidine compound as active ingredient” (KEIO UNIVERSITY, priority 2018, dated 2024)
